Results taken from PubChem BioAssay (NCI).
Values joined by “and” are separate entries in the source; they are usually repeats but may differ in a detail not shown here. Equal values may be shown once.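 The compound was tested at five concentrations on cells cultured in 96-well plates, with a 48-hour exposure period. GI50 is the concentration that inhibits growth by half. At the TGI there is no net growth.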

Experiments:
Experiment in all cases: inhibition of tumour cell growth, NCI panel, 48 h
786-0 renal = test system: 786-0 renal
MDA-MB-435 = test system: MDA-MB-435
BT-549 breast = test system: BT-549 breast
SK-MEL-2 melanoma = test system: SK-MEL-2 melanoma
SNB-19 CNS = test system: SNB-19 CNS
HCT-116 colon = test system: HCT-116 colon
OVCAR-5 ovarian = test system: OVCAR-5 ovarian
SK-MEL-5 melanoma = test system: SK-MEL-5 melanoma
A498 renal = test system: A498 renal
NCI-H23 lung = test system: NCI-H23 lung

Row | SMILES | GI50 (786-0 renal) | TGI (786-0 renal) | GI50 (MDA-MB-435) | TGI (MDA-MB-435) | GI50 (BT-549 breast) | TGI (BT-549 breast) | GI50 (SK-MEL-2 melanoma) | TGI (SK-MEL-2 melanoma) | GI50 (SNB-19 CNS) | TGI (SNB-19 CNS) | GI50 (HCT-116 colon) | TGI (HCT-116 colon) | GI50 (OVCAR-5 ovarian) | TGI (OVCAR-5 ovarian) | GI50 (SK-MEL-5 melanoma) | TGI (SK-MEL-5 melanoma) | GI50 (A498 renal) | TGI (A498 renal) | GI50 (NCI-H23 lung) | TGI (NCI-H23 lung)
1 | CC(=O)N[C@@H]1CCC[C@H](C(=O)Nc2cc(-c3cnn4c3CC(C)(C)C4)c(Cl)cn2)C1 | < 10 nM | 29600 nM | < 13 nM | 11900 nM | < 10 nM | 49.9 nM | 12.1 nM | 41 nM | < 10 nM | > 100000 nM | < 10 nM | > 100000 nM | < 10 nM | > 100000 nM | < 10 nM | < 40.6 nM | < 10 nM | 31.3 nM | < 11.6 nM | 181 nM
2 | CN(C)c1ccc(Sc2ccc3nc(N)nc(N)c3c2)cc1 | 495 nM | 2500 nM | 542 nM | 14200 nM | 3280 nM | 19500 nM | 3840 nM | 16100 nM | 1200 nM | 17700 nM | 305 nM | 1640 nM | 1160 nM | 21000 nM | 503 nM | 4780 nM | 3340 nM | 14000 nM | 665 nM | 18000 nM
3 | CCc1nc(N)nc(N)c1-c1ccc([N+](=O)[O-])c(Cl)c1 | – | > 100000 nM | – | > 100000 nM | – | > 100000 nM | – | > 100000 nM | – | > 100000 nM | – | > 100000 nM | – | > 100000 nM | – | > 82500 nM | – | > 100000 nM | – | > 100000 nM
4 | COc1cc(OC)cc(N2CCN(C(=O)Nc3nc4cc(F)ccc4nc3OC)CC2)c1 | 48.7 nM and 46 nM and 36.2 nM | 31000 nM and 22100 nM | < 10 nM and 10 nM | 21.5 nM and 33.6 nM | 34.5 nM and 45.8 nM and 33.5 nM | 2490 nM and 2330 nM and 498 nM | 277 nM and 66.6 nM and 30.6 nM | 29100 nM and 10800 nM | 41.8 nM and 45 nM and 43.1 nM | > 95900 nM and 40300 nM | 38.1 nM and 33.2 nM and 33.4 nM | 1540 nM and 214 nM | 55.7 nM and 158 nM and 52.8 nM | > 100000 nM | < 23 nM and 29.7 nM and 23 nM | 294 nM and 399 nM and 160 nM | < 16.4 nM and 12.6 nM | – | 57.8 nM and 62 nM and 52 nM | 52200 nM and 34500 nM
5 | CCCCCCCCCCCCNC(=O)[C@H]1CSC(c2ccc(OC)c(F)c2)N1 (stereo partly drawn) | 1630 nM | 3080 nM | 193 nM | 385 nM | 370 nM | 912 nM | 1770 nM | 3410 nM | 1950 nM | 3660 nM | 421 nM | 1410 nM | 1400 nM | 2720 nM | 1270 nM | 2570 nM | 1780 nM | 3280 nM | 1600 nM | 3270 nM
6 | CC(C)(C)NCCC(O)c1cc(C(F)(F)F)nc2c(C(F)(F)F)cccc12 (stereo not drawn) | – | 19600 nM | – | 27600 nM | – | 23200 nM | – | 24600 nM | – | 27300 nM | – | 17100 nM | – | 29300 nM | – | 25500 nM | – | 28300 nM | – | 9740 nM
7 | O=[N+]([O-])O.[NH-]C1CCCCC1[NH-].[NH-]C1CCCCC1[NH-].[NH-]C1CCCCC1[NH-].[OH-].[OH-].[OH-].[Pt+4].[Pt+4].[Pt+4] (stereo not drawn) | 40.8 nM | 3190 nM | 367 nM | 6300 nM | 3020 nM | > 62500 nM | 2050 nM | 30500 nM | 1060 nM | > 58900 nM | 70.9 nM | – | 2030 nM | 93800 nM | 36.3 nM | 1000 nM | 278 nM | 35100 nM | 359 nM | 4700 nM
